Assays:
blackgrass = assay: Test B pre/postemergence blackgrass; format: in vivo, Alopecurus myosuroides
How it was run: (§1)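 Response is a visual 0-to-10 score relative to untreated plants, where 0 means no effect and 10 means complete control, taken twelve to sixteen days after application. Treatments went onto soil at planting and onto foliage of 1- to 4-leaf plants, using a surfactant-containing non-phytotoxic solvent.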

surinam grass = assay: Test B pre/postemergence surinam grass; format: in vivo, Brachiaria decumbens
How it was run: as §1

cocklebur = assay: Test B pre/postemergence cocklebur; format: in vivo, Xanthium strumarium
How it was run: as §1

corn = assay: Test B pre/postemergence corn; format: in vivo, Zea mays
How it was run: as §1

crabgrass = assay: Test B pre/postemergence crabgrass; format: in vivo, Digitaria sanguinalis
How it was run: as §1

giant foxtail = assay: Test B pre/postemergence giant foxtail; format: in vivo, Setaria faberii
How it was run: as §1

morningglory = assay: Test B pre/postemergence morningglory; format: in vivo, Ipomoea hederacea
How it was run: as §1

pigweed = assay: Test B pre/postemergence pigweed; format: in vivo, Amaranthus retroflexus
How it was run: as §1

rape = assay: Test B pre/postemergence rape; format: in vivo, Brassica napus
How it was run: as §1

soybean = assay: Test B pre/postemergence soybean; format: in vivo, Glycine max
How it was run: as §1

sugar beet = assay: Test B pre/postemergence sugar beet; format: in vivo, Beta vulgaris
How it was run: as §1

velvetleaf = assay: Test B pre/postemergence velvetleaf; format: in vivo, Abutilon theophrasti
How it was run: as §1

wheat = assay: Test B pre/postemergence wheat; format: in vivo, Triticum aestivum
How it was run: as §1

wild oat = assay: Test B pre/postemergence wild oat; format: in vivo, Avena fatua
How it was run: as §1

purple nutsedge = assay: Test B pre/postemergence purple nutsedge; format: in vivo, Cyperus rotundus
How it was run: as §1

rice = assay: Test B flood test rice; format: in vivo, Oryza sativa
How it was run: (§2)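 Flood test on plants grown to the 2-leaf stage; treated plants kept in greenhouse twelve to sixteen days, then visually rated against controls on a 0 (no effect) to 10 (complete control) scale.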

smallflower flatsedge = assay: Test B flood test smallflower flatsedge; format: in vivo, Cyperus difformis
How it was run: as §2

duck salad = assay: Test B flood test duck salad; format: in vivo, Heteranthera limosa
How it was run: as §2

bamyardgrass = assay: Test B flood test barnyardgrass; format: in vivo, Echinochloa crus-galli
How it was run: as §2

[1] = Postemergence, Rate 62 g/ha, scale 0 to 10, 0 is no effect, 10 is complete control
[2] = Postemergence, Rate 125 g/ha, scale of 0 to 10 where 0 is no effect and 10 is complete control
[3] = Postemergence, Rate 250 g/ha, scale of 0 to 10, 0 is no effect, 10 is complete control
[4] = Postemergence, Rate 500 g/ha, scale of 0 to 10 where 0 is no effect and 10 is complete control
[5] = Preemergence, Rate 62 g/ha, scale of 0 to 10 where 0 is no effect and 10 is complete control
[6] = Preemergence, Rate 125 g/ha, scale of 0 to 10 where 0 is no effect and 10 is complete control
[7] = Preemergence, Rate 250 g/ha, scale 0 to 10 (0 no effect, 10 complete control)
[8] = Preemergence, Rate 500 g/ha, scale of 0 to 10 where 0 is no effect and 10 is complete control
[9] = Rate 62 g/ha, flood test species, Pre-emergence, visual evaluation after twelve to sixteen days
[10] = Rate 125 g/ha, under heading Pre-emergence, flood test species, visual evaluation after twelve to sixteen days
[11] = Rate 250 g/ha, Pre-emergence (flood test species), scale 0 to 10, 0 is no effect, 10 is complete control
[12] = Rate 500 g/ha, Pre-emergence section of Table B, 0 to 10 scale (0 no effect, 10 complete control)

## CC(C)N(C(=O)n1oc(=O)n(CC(=O)C2CCC2)c1=O)c1ccccc1 [Compound 641]
blackgrass; [1]
  Plant response rating, Blackgrass: 0
blackgrass; [2]
  Plant response rating, Blackgrass: 0
blackgrass; [3]
  Blackgrass plant response rating: 2
blackgrass; [4]
  Plant response rating, Blackgrass: 6
blackgrass; [5]
  Blackgrass plant response rating: 0
blackgrass; [6]
  Blackgrass plant response rating: 0
blackgrass; [7]
  Plant response rating, Blackgrass: 2
blackgrass; [8]
  Plant response rating, Blackgrass: 8
Surinam grass; [1]
  Plant response rating, B. signalgrass: 0
Surinam grass; [2]
  Plant response rating, B. signalgrass: 0
Surinam grass; [3]
  B. signalgrass plant response rating: 0
Surinam grass; [4]
  Plant response rating, B. signalgrass: 4
Surinam grass; [5]
  B. signalgrass plant response rating: 0
Surinam grass; [6]
  B. signalgrass plant response rating: 0
Surinam grass; [7]
  Plant response rating, B. signalgrass: 6
Surinam grass; [8]
  Plant response rating, B. signalgrass: 8
cocklebur; [1]
  Plant response rating, Cocklebur: 0
cocklebur; [2]
  Plant response rating, Cocklebur: 0
cocklebur; [3]
  Cocklebur plant response rating: 0
cocklebur; [4]
  Plant response rating, Cocklebur: 0
cocklebur; [5]
  Cocklebur plant response rating: 0
cocklebur; [6]
  Cocklebur plant response rating: 0
cocklebur; [7]
  Plant response rating, Cocklebur: 0
cocklebur; [8]
  Plant response rating, Cocklebur: 0
corn; [1]
  Plant response rating, Corn: 0
corn; [2]
  Plant response rating, Corn: 0
corn; [3]
  Corn plant response rating: 0
corn; [4]
  Plant response rating, Corn: 0
corn; [5]
  Corn plant response rating: 0
corn; [7]
  Plant response rating, Corn: 0
corn; [8]
  Plant response rating, Corn: 2
crabgrass; [1]
  Plant response rating, Crabgrass: 0
crabgrass; [2]
  Plant response rating, Crabgrass: 0
crabgrass; [3]
  Crabgrass plant response rating: 3
crabgrass; [4]
  Plant response rating, Crabgrass: 6
crabgrass; [5]
  Crabgrass plant response rating: 0
crabgrass; [6]
  Crabgrass plant response rating: 3
crabgrass; [7]
  Plant response rating, Crabgrass: 7
crabgrass; [8]
  Plant response rating, Crabgrass: 9
Giant foxtail; [1]
  Plant response rating, Giant foxtail: 0
Giant foxtail; [2]
  Plant response rating, Giant foxtail: 0
Giant foxtail; [3]
  Giant foxtail plant response rating: 3
Giant foxtail; [4]
  Plant response rating, Giant foxtail: 6
Giant foxtail; [5]
  Giant foxtail plant response rating: 5
Giant foxtail; [6]
  Giant foxtail plant response rating: 9
Giant foxtail; [7]
  Plant response rating, Giant foxtail: 9
Giant foxtail; [8]
  Plant response rating, Giant foxtail: 9
morningglory; [1]
  Plant response rating, Morningglory: 0
morningglory; [2]
  Plant response rating, Morningglory: 1
morningglory; [3]
  Morningglory plant response rating: 7
morningglory; [4]
  Plant response rating, Morningglory: 9
morningglory; [5]
  Morningglory plant response rating: 0
morningglory; [6]
  Morningglory plant response rating: 0
morningglory; [7]
  Plant response rating, Morningglory: 0
morningglory; [8]
  Plant response rating, Morningglory: 0
pigweed; [2]
  Plant response rating, Redroot pigweed: 0
pigweed; [3]
  Redroot pigweed plant response rating: 3
pigweed; [5]
  Redroot pigweed plant response rating: 0
pigweed; [6]
  Redroot pigweed plant response rating: 0
pigweed; [7]
  Plant response rating, Redroot pigweed: 0
pigweed; [8]
  Plant response rating, Redroot pigweed: 7
rape; [1]
  Plant response rating, Rape: 0
rape; [2]
  Plant response rating, Rape: 0
rape; [3]
  Rape plant response rating: 0
rape; [4]
  Plant response rating, Rape: 0
rape; [5]
  Rape plant response rating: 0
rape; [8]
  Plant response rating, Rape: 0
soybean; [1]
  Plant response rating, Soybean: 0
soybean; [2]
  Plant response rating, Soybean: 0
soybean; [3]
  Soybean plant response rating: 1
soybean; [5]
  Soybean plant response rating: 0
soybean; [6]
  Soybean plant response rating: 0
soybean; [7]
  Plant response rating, Soybean: 0
soybean; [8]
  Plant response rating, Soybean: 0
Sugar beet; [1]
  Plant response rating, Sugarbeets: 0
Sugar beet; [2]
  Plant response rating, Sugarbeets: 0
Sugar beet; [3]
  Sugarbeets plant response rating: 0
Sugar beet; [5]
  Sugarbeets plant response rating: 0
Sugar beet; [6]
  Sugarbeets plant response rating: 0
Sugar beet; [7]
  Plant response rating, Sugarbeets: 0
Sugar beet; [8]
  Plant response rating, Sugarbeets: 0
velvetleaf; [1]
  Plant response rating, Velvetleaf: 0
velvetleaf; [2]
  Plant response rating, Velvetleaf: 0
velvetleaf; [3]
  Velvetleaf plant response rating: 0
velvetleaf; [5]
  Velvetleaf plant response rating: 0
velvetleaf; [6]
  Velvetleaf plant response rating: 0
velvetleaf; [7]
  Plant response rating, Velvetleaf: 0
velvetleaf; [8]
  Plant response rating, Velvetleaf: 0
wheat; [1]
  Plant response rating, Wheat: 0
wheat; [2]
  Plant response rating, Wheat: 0
wheat; [3]
  Wheat plant response rating: 0
wheat; [5]
  Wheat plant response rating: 0
wheat; [6]
  Wheat plant response rating: 0
wheat; [7]
  Plant response rating, Wheat: 0
wheat; [8]
  Plant response rating, Wheat: 0
Wild oat; [1]
  Plant response rating, Wild oats: 0
Wild oat; [2]
  Plant response rating, Wild oats: 1
Wild oat; [3]
  Wild oats plant response rating: 1
Wild oat; [5]
  Wild oats plant response rating: 0
Wild oat; [6]
  Wild oats plant response rating: 0
Wild oat; [7]
  Plant response rating, Wild oats: 0
Wild oat; [8]
  Plant response rating, Wild oats: 5
Purple nutsedge; [1]
  Plant response rating, Nutsedge: 0
Purple nutsedge; [2]
  Plant response rating, Nutsedge: 0
Purple nutsedge; [3]
  Nutsedge plant response rating: 4
Purple nutsedge; [5]
  Nutsedge plant response rating: 0
Purple nutsedge; [6]
  Nutsedge plant response rating: 0
Purple nutsedge; [7]
  Plant response rating, Nutsedge: 0
Purple nutsedge; [8]
  Plant response rating, Nutsedge: 3
rice; [9]
  Plant response rating, Rice (0 to 10 scale, 0 is no effect, 10 is complete control): 0
rice; [10]
  Rice plant response rating (0 to 10 scale, 0 is no effect, 10 is complete control): 0
rice; [11]
  Rice plant response rating: 0
rice; [12]
  Rice plant response rating: 0
Smallflower flatsedge; [9]
  Plant response rating, S. Flatsedge (0 to 10 scale, 0 is no effect, 10 is complete control): 0
Smallflower flatsedge; [10]
  S. Flatsedge plant response rating (0 to 10 scale, 0 is no effect, 10 is complete control): 0
Smallflower flatsedge; [11]
  S. Flatsedge plant response rating: 0
Smallflower flatsedge; [12]
  S. Flatsedge plant response rating: 0
Duck salad; [9]
  Plant response rating, Ducksalad (0 to 10 scale, 0 is no effect, 10 is complete control): 0
Duck salad; [10]
  Ducksalad plant response rating (0 to 10 scale, 0 is no effect, 10 is complete control): 0
Duck salad; [11]
  Ducksalad plant response rating: 0
Duck salad; [12]
  Ducksalad plant response rating: 0
bamyardgrass; [9]
  Plant response rating, Barnyardgrass (0 to 10 scale, 0 is no effect, 10 is complete control): 0
bamyardgrass; [10]
  Barnyardgrass plant response rating (0 to 10 scale, 0 is no effect, 10 is complete control): 0
bamyardgrass; [11]
  Barnyardgrass plant response rating: 0
bamyardgrass; [12]
  Barnyardgrass plant response rating: 0

— US6737383B1, “Herbicidal oxadiazolidines” (priority 1999, dated 2004)
